Experimental data published in US11584744B2 (UNIVERSITY OF WASHINGTON, priority 2017, dated 2023).
In brackets after ≈: the same amount, converted by molar mass. Several values for one entry are separate records, joined by “and”; a condition that tells them apart may be missing. Identical values can stand only once. Like-named read-outs stand apart in the source and are kept apart here.

Legend:
MetRS (T. brucei) = target: T1, MetRS (T. brucei) (Trypanosoma brucei brucei, UniProt Q38C91); experiment: MetRS (T. brucei) enzyme inhibition; assay type: biochemical
T1 sequence (Q38C91 1-773): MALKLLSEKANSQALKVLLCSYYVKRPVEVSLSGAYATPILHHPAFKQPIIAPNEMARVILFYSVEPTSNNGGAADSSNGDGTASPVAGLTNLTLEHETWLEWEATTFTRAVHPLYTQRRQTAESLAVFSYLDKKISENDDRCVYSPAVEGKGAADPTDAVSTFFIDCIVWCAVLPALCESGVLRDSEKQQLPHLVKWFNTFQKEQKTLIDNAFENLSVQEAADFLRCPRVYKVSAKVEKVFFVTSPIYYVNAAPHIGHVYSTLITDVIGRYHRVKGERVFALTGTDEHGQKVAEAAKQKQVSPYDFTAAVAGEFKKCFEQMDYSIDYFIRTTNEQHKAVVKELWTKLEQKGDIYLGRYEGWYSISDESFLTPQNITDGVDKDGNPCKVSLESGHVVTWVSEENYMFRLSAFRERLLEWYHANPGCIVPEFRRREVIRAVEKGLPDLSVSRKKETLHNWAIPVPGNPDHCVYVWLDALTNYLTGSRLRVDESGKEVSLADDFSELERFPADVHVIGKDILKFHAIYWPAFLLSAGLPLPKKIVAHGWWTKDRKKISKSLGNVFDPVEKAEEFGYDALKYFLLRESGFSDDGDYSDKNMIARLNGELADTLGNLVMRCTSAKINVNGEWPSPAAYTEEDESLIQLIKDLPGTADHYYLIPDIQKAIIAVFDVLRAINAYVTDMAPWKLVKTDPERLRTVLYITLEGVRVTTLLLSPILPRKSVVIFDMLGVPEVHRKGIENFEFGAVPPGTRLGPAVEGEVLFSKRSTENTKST

[1] = test system: E. faecium VRE (ATCC 51559); experiment: MIC susceptibility testing; assay type: cell-based, Enterococcus faecium; details: Enterococcus faecium, E. faecium ATCC 51559; read-out: (I) E. faecium (ATCC 51559) MIC
Procedure, shortened: (§1)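 CLSI broth microdilution with two-fold compound dilutions, in triplicate; cells added in medium at 1×10^6 CFUs/mL, DMSO ≤0.5%. Media: MHB for S. aureus, CA-MHB for E. coli and E. faecium, CA-MHB plus 3% laked horse blood for S. pyogenes (5% CO2).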

[2] = target: recombinant S. aureus MetRS enzyme (Staphylococcus aureus, UniProt A0A0H2XID2); experiment: Inhibition of SaMetRS, ATP depletion assay; assay type: biochemical; details: read-out: (B) MetRS (S. aureus) IC50
Method: Production of recombinant S. aureus MetRSs. The SaMetRS gene (UniProtKB—A0A0H2XID2) was PCR amplified (Sense 5′-[…]-3′ (SEQ ID NO: 1) and Antisense 5′-[…]-3′ (SEQ ID NO:2)) from genomic DNA isolated from S. aureus (ATCC 29213) cultures. The PCR product was then cloned into the AVA0421 plasmid and sequence verified. The expression of recombinant protein was performed as previously described. The N-terminal 6-His fusion proteins were purified by nickel affinity chromatography followed by size exclusion gel chromatography (Superdex 75 26/60; GE Biosciences, Piscataway, N.J.).
Enzyme assays. Inhibition of SaMetRS was measured using the ATP depletion assay as previously described with some modifications. Compounds were pre-incubated for 15 minutes at room temperature in a 96-well plate with 400 μg/mL bulk E. coli tRNA, 25 nM SaMetRS, 0.1 U/mL pyrophosphatase, 0.2 mM spermine, 0.1 mg/mL bovine serum albumin, 2.5 mM dithiothreitol, 25 mM HEPES-KOH pH 7.9, 10 mM MgCl2, 50 mM KCl, and 2% DMSO. Reagents were purchased from Sigma-Aldrich or Roche. The reaction was started with the addition of 150 nM ATP and 20 μM L-methionine and after 120 minute incubation was stopped by the addition of an equal volume (50 μL) of Kinase-Glo® (Promega). Percent inhibition=100×(test compound−AVG low control)/(AVG high control−AVG low control) where the low control is all reagents except the compound and the high control is all reagents except the compounds and L-methionine. IC50 values were calculated by non-linear regression, sigmoidal-dose response, in Prism 3.0.

T. cruzi = T. cruzi growth inhibition; assay type: cell-based, Trypanosoma cruzi; details: read-out: (E) T. cruzi EC50
MetRS (C. parvum) = MetRS (C. parvum) (Cryptosporidium parvum, UniProt Q5CVN0); experiment: MetRS (C. parvum) enzyme inhibition; assay type: biochemical; details: read-out: (C) MetRS (C. parvum) IC50
[3] = test system: S. aureus MRSA (ATCC 33591); experiment: MIC susceptibility testing; assay type: cell-based, Staphylococcus aureus; details: MRSA ATCC33591; for MIC: Staphylococcus aureus, read-out: (G) MRSA (ATCC33591) MIC
Procedure, shortened: as §1

[4] = test system: S. aureus MSSA (ATCC 29213); experiment: MIC susceptibility testing; assay type: cell-based, Staphylococcus aureus; details: Staphylococcus aureus, S. aureus ATCC 29213, read-out: (F) S. aureus (ATCC 29213) MIC
T. brucei = T. brucei growth inhibition; assay type: cell-based, Trypanosoma brucei; details: read-out: (D) T. brucei EC50
C. parvum = C. parvum growth inhibition; assay type: cell-based, Cryptosporidium parvum; details: Cryptosporidium parvum; read-out: (J) C. parvum EC50
S. pyogenes (ATCC 19615) = experiment: MIC susceptibility testing; assay type: cell-based; details: Streptococcus pyogenes, ATCC19615, S. pyogenes ATCC 19615; read-out: (H) S. pyogenes (ATCC 19615) MIC
Source text: Media and culture conditions. Mueller Hinton broth (MHB), cation adjusted Mueller Hinton broth (CA-MHB), and Brain Heart Infusion broth (BHI) were purchased from Becton Dickinson (Franklin Lakes, N.J.). Tryptic soy agar (TSA) plates, TSA with 5% sheep blood plates, and CA-MHB with 3% laked horse blood were purchased from Remel (San Diego, Calif.). MHB was used to assay all Staphylococcus aureus strains. CA-MHB was used for Staphylococcus epidermidis, Enterococcus faecalis, Enterococcus faecium, Escherichia coli, and Pseudomonas aeruginosa. CA-MHB supplemented with 3% laked horse blood was used for Streptococcus pneumoniae and Streptococcus pyogenes. Staphylococcus, Enterococcus, Escherichia, and Pseudomonas strains were cultured at 37° C. with ambient air. Streptococcus strains were cultured in 37° C. with 5% CO2. Separate conditions for radiolabeled precursor uptake assays are described below.
Susceptibility testing: Minimum inhibitory concentration (MIC) determinations were performed in triplicate in 96-well round bottom microtiter plates (Corning, Corning N.Y.) as described by the Clinical and Laboratory Standards Institute (CLSI). Serial two-fold dilutions of compounds were added to plates in 50 μL volumes. An additional 50 μL of media containing bacterial cells (1×10^6 CFUs/mL) was then added to each well. Maximum DMSO concentrations were 0.5%. Plates were incubated at 37° C. for at least 18 h before reading the susceptibility result by optical absorbance (OD600) using a BioTek ELx800. The lowest concentration causing ≥90% growth inhibition compared to the untreated control was recorded as the MIC (and also corresponded to the visual MIC). MICs were measured at least twice and the higher value (if different) was recorded herein.

Sequence of MetRS (C. parvum) (Q5CVN0 entry or part of it): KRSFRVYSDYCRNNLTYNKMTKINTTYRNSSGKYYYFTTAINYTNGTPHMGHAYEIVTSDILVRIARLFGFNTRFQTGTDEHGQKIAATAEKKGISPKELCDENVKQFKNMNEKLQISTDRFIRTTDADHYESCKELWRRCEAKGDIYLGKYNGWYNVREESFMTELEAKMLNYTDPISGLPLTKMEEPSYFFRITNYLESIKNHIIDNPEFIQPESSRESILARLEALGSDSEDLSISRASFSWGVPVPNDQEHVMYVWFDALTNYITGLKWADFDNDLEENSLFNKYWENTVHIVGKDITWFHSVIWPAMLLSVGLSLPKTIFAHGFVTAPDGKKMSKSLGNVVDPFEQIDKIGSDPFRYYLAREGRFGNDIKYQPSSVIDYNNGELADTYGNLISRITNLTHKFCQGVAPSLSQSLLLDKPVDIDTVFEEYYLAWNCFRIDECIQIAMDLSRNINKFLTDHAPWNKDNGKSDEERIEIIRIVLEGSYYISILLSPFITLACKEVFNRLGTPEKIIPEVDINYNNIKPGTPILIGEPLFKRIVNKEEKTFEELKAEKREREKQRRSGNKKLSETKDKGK
Sequence of recombinant S. aureus MetRS enzyme (A0A0H2XID2 2-657): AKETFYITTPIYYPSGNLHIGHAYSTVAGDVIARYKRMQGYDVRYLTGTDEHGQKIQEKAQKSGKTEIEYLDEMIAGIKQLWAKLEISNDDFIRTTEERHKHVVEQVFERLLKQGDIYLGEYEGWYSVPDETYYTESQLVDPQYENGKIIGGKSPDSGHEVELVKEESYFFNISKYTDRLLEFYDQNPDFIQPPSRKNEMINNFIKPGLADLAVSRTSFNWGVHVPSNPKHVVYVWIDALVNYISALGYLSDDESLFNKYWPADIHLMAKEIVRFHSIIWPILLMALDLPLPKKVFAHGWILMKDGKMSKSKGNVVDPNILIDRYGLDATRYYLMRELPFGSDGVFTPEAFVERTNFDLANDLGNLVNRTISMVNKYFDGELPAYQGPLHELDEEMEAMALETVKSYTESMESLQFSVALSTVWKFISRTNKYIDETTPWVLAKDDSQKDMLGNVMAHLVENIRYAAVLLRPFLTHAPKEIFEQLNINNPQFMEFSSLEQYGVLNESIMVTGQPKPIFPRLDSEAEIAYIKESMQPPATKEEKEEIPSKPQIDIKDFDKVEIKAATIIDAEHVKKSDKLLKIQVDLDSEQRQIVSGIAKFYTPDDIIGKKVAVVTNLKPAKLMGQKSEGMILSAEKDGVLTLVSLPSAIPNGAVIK

SMILES	IC50 (MetRS (T. brucei))	MIC [1]	IC50 [2]	EC50 (T. cruzi; Trypanosoma cruzi)	IC50 (MetRS (C. parvum))	MIC [3]	MIC [4]	EC50 (T. brucei; Trypanosoma brucei)	EC50 (T. brucei)	EC50 (C. parvum)	EC50 (T. cruzi)	(G) MRSA (ATCC33591) MIC [3]	MIC (S. pyogenes (ATCC 19615))	MIC ([4]; ATCC29213|MSSA)
COCCCn1c(Cc2ccc(Cl)cc2Cl)cn(Cc2nc3ccc(F)nc3[nH]2)c1=O [Compound 2082, 4-[(2,4-dichlorophenyl)methyl]-1-({5-fluoro-1H-imidazo[4,5-b]pyridin-2-yl}methyl)-3-(3-methoxypropyl)-2,3-dihydro-1H-imidazol-2-one]	< 40 nM	0.238 µg/mL (≈ 0.513 µM)	< 25 nM	145 nM	< 40 nM	1.54 µg/mL (≈ 3.32 µM)	0.18 µg/mL (≈ 0.388 µM)	–	–	–	–	–	–	–
COc1cc(-c2cccc3nc(Cc4nc5nc(Cl)ccc5[nH]4)cn23)c(Cl)cc1Cl [Compound 2128, 2-({5-chloro-1H-imidazo[4,5-b]pyridin-2-yl}methyl)-5-(2,4-dichloro-5-methoxyphenyl)imidazo[1,2-a]pyridine]	< 40 nM	0.24 µg/mL (≈ 0.523 µM)	< 25 nM	5.88 nM	< 40 nM	–	–	3.62 nM	3.4 nM	1680 nM	10.8 nM	–	–	–
Clc1ccc(-c2cccc3nc(Cc4nc5nc(Cl)ccc5[nH]4)cn23)c(Cl)c1 [Compound 2134, 2-({5-chloro-1H-imidazo[4,5-b]pyridin-2-yl}methyl)-5-(2,4-dichlorophenyl)-imidazo[1,2-a]pyridine]	< 40 nM	0.259 µg/mL (≈ 0.604 µM)	< 25 nM	685 nM	58.8 nM	0.268 µg/mL (≈ 0.625 µM)	0.162 µg/mL (≈ 0.378 µM)	64 nM	–	–	–	0.331 µg/mL	–	–
O=c1n(Cc2nc3ccc(Cl)nc3[nH]2)cc(Cc2ccc(Cl)cc2Cl)n1CC(F)F [Compound 2138, 1-({5-chloro-1H-imidazo[4,5-b]pyridin-2-yl}methyl)-4-[(2,4-dichlorophenyl)-methyl]-3-(2,2-difluoroethyl)-2,3-dihydro-1H-imidazol-2-one]	< 40 nM	0.596 µg/mL (≈ 1.26 µM)	< 25 nM	26.7 nM	< 40 nM	0.553 µg/mL (≈ 1.17 µM)	0.062 µg/mL (≈ 0.131 µM)	2.46 nM	3.48 nM	–	53.1 nM	–	–	–
COc1cc(-c2cccc3nc(Cc4nc5nc(Br)ccc5[nH]4)cn23)c(Cl)cc1Cl [Compound 2146, 2-({5-bromo-1H-imidazo[4,5-b]pyridin-2-yl}methyl)-5-(2,4-dichloro-5-methoxyphenyl)imidazo[1,2-a]pyridine]	< 40 nM	0.141 µg/mL (≈ 0.28 µM)	< 25 nM	19.5 nM	92.4 nM	0.127 µg/mL (≈ 0.252 µM)	–	–	–	1990 nM	29.7 nM	0.165, μg/mL and 0.179 μg/mL	–	–
COc1ccc(-c2ccc3c(=O)ccn(Cc4nc5nc(F)ccc5[nH]4)c3c2)c(Cl)c1 [Compound 2168, 7-(2-chloro-4-methoxyphenyl)-1-((5-fluoro-1H-imidazo[4,5-b]pyridin-2-yl)methyl)quinolin-4(1H)-one]	< 40 nM	> 2.5 µg/mL	< 25 nM	6150 nM	< 40 nM	–	> 1.25 µg/mL	> 200 nM	–	–	–	–	–	–
COc1ccc(-c2ccc(NS(C)(=O)=O)c3nc(Cc4nc5nc(Cl)ccc5[nH]4)cn23)c(Cl)c1 [Compound 2174, N-[2-({5-chloro-1H-imidazo[4,5-b]pyridin-2-yl}methyl)-5-(2-chloro-4-methoxyphenyl)imidazo[1,2-a]pyridin-8-yl]methanesulfonamide]	< 40 nM	0.318 µg/mL (≈ 0.615 µM)	< 25 nM	195 nM	< 40 nM	0.319 µg/mL (≈ 0.617 µM)	0.158 µg/mL (≈ 0.305 µM)	–	–	1190 nM	–	–	–	–
COc1ccc(-c2ccc(NC(C)=O)c3nc(Cc4nc5nc(Br)ccc5[nH]4)cn23)c(Cl)c1 [Compound 2184, N-[2-({5-bromo-1H-imidazo[4,5-b]pyridin-2-yl}methyl)-5-(2-chloro-4-methoxyphenyl)imidazo[1,2-a]pyridin-8-yl]acetamide]	< 40 nM	0.286 µg/mL (≈ 0.544 µM)	< 25 nM	29.3 nM	< 40 nM	0.435 µg/mL (≈ 0.827 µM)	0.201 µg/mL (≈ 0.382 µM)	–	–	719 nM	23.1 nM	–	–	–
CC(C)NCC(O)Cn1c(Cc2ccc(Cl)cc2Cl)cn(Cc2nc3cc(F)c(F)cc3[nH]2)c1=O (stereo not drawn) [Compound 2293, 4-[(2,4-dichlorophenyl)methyl]-1-[(5,6-difluoro-1H-1,3-benzodiazol-2-yl)methyl]-3-{2-hydroxy-3-[(propan-2-yl)amino]propyl}-2,3-dihydro-1H-imidazol-2-one]	–	–	–	–	–	–	> 8 µg/mL	831 nM	–	–	–	–	> 8 µg/mL	–
CC(C)NCC(O)Cn1c(Cc2ccc(Cl)cc2Cl)cn(Cc2nc3ccc(F)nc3[nH]2)c1=O (stereo not drawn) [Compound 2294, 4-[(2,4-dichlorophenyl)methyl]-1-({5-fluoro-1H-imidazo[4,5-b]pyridin-2-yl}methyl)-3-{2-hydroxy-3-[(propan-2-yl)amino]propyl}-2,3-dihydro-1H-imidazol-2-one]	–	–	–	3330 nM	–	–	> 8 µg/mL	30.4 nM	–	–	–	–	> 8 µg/mL	–
CCn1c(Cc2c(Cl)cc(Cl)cc2OC)cn(Cc2nc3ccc(Cl)nc3[nH]2)c1=O [Compound 2295]	–	–	–	5.3 nM	–	–	–	< 0.91 nM	0.71 nM	–	4.59 nM	–	1.16 µg/mL (≈ 2.49 µM)	0.124 µg/mL (≈ 0.266 µM)
